Source: PubChem BioAssay AID1963975 (Molecular Pharmacology Branch, DTP, NCI, 2024)

Tested on: 624824-186-R-J2-PDC multicell spheroids, viability
Assay: Anticancer human tumor 624824-186-R-J2-PDC patient-derived colon adenocarcinoma cell line growth inhibition [PI3K]
Conditions: for IC50: curve of first compound; for viability, T/C: stronger effect = lower value; active means viability on the fitted dose curve at most 10% of control; inactive means the rest
How it was run: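 Tumor cells were combined with HUVEC and MSCs into spheroids, then dosed with PI3K-inhibitor combinations over half-log ranges capped near clinical Cmax or 10 microM.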

[1] = second compound 0.00316 µM, first compound 0.0316 µM
[2] = second compound 0.00316 µM, first compound 0.1 µM
[3] = second compound 0.00316 µM, first compound 0.316 µM
[4] = second compound 0.00316 µM, first compound 1 µM
[5] = second compound 0.00316 µM, first compound 3.16 µM
[6] = second compound 0.00316 µM, first compound 10 µM
[7] = second compound 0.01 µM, first compound 0.0316 µM
[8] = second compound 0.01 µM, first compound 0.1 µM
[9] = second compound 0.01 µM, first compound 0.316 µM
[10] = second compound 0.01 µM, first compound 1 µM
[11] = second compound 0.01 µM, first compound 3.16 µM
[12] = second compound 0.01 µM, first compound 10 µM
[13] = second compound 0.0316 µM, first compound 0.0316 µM
[14] = second compound 0.0316 µM, first compound 0.1 µM
[15] = second compound 0.0316 µM, first compound 0.316 µM
[16] = second compound 0.0316 µM, first compound 1 µM
[17] = second compound 0.0316 µM, first compound 3.16 µM
[18] = second compound 0.0316 µM, first compound 10 µM
[19] = second compound 0.1 µM, first compound 0.0316 µM
[20] = second compound 0.1 µM, first compound 0.1 µM
[21] = second compound 0.1 µM, first compound 0.316 µM
[22] = second compound 0.1 µM, first compound 1 µM
[23] = second compound 0.1 µM, first compound 3.16 µM
[24] = second compound 0.1 µM, first compound 10 µM
[25] = second compound 0.316 µM, first compound 0.0316 µM
[26] = second compound 0.316 µM, first compound 0.1 µM
[27] = second compound 0.316 µM, first compound 0.316 µM
[28] = second compound 0.316 µM, first compound 1 µM
[29] = second compound 0.316 µM, first compound 3.16 µM
[30] = second compound 0.316 µM, first compound 10 µM
[31] = second compound 1 µM, first compound 0.0316 µM
[32] = second compound 1 µM, first compound 0.1 µM
[33] = second compound 1 µM, first compound 0.316 µM
[34] = second compound 1 µM, first compound 1 µM
[35] = second compound 1 µM, first compound 3.16 µM
[36] = second compound 1 µM, first compound 10 µM
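Further: spheroids exposed to agents for 7 days before viability read.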
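Wherever viability, T/C is given: 100% = DMSO vehicle treated spheroids.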

Cn1ncc(Cl)c1-c1cc(C(=O)NC(CN)Cc2cccc(F)c2)sc1Cl (stereo unspecified) + COc1c(OCCCN2CCOCC2)ccc2c3n(c(=NC(=O)c4cnc(N)nc4)nc12)CCN3
4550 nM: IC50 (second compound 1 µM)
> 10000 nM: IC50 (second compound 0.00316 µM)
7470 nM: IC50 (second compound 0.1 µM)
5310 nM: IC50 (second compound 0.316 µM)
inactive: viability, T/C [1] 86.6% | viability, T/C [2] 72% | viability, T/C [3] 90.8% | viability, T/C [4] 87.7% | viability, T/C [5] 72.7% | viability, T/C [6] 50% | viability, T/C [7] 118% | viability, T/C [8] 81.2% | viability, T/C [9] 93.7% | viability, T/C [10] 81.6% | viability, T/C [11] 62.6% | viability, T/C [12] 45.5% | viability, T/C [13] 86.1% | viability, T/C [14] 85.5% | viability, T/C [15] 89.2% | viability, T/C [16] 74% | viability, T/C [17] 71% | viability, T/C [18] 45.4% | viability, T/C [19] 78.2% | viability, T/C [20] 81.3% | viability, T/C [21] 68.3% | viability, T/C [22] 69.2% | viability, T/C [23] 64.7% | viability, T/C [24] 44.9% | viability, T/C [25] 80.9% | viability, T/C [26] 66.6% | viability, T/C [27] 64.7% | viability, T/C [28] 66.9% | viability, T/C [29] 63.4% | viability, T/C [30] 36.3% | viability, T/C [31] 68.5% | viability, T/C [32] 58.3% | viability, T/C [33] 61.6% | viability, T/C [34] 57.9% | viability, T/C [35] 57.8% | viability, T/C [36] 35.8%
8260 nM: IC50 (second compound 0.01 µM)
8190 nM: IC50 (second compound 0.0316 µM)

Cn1nccc1Nc1nccc(-c2ccn(C(CO)c3ccc(Cl)c(F)c3)c(=O)c2)n1 (stereo unspecified) + COc1c(OCCCN2CCOCC2)ccc2c3n(c(=NC(=O)c4cnc(N)nc4)nc12)CCN3
370 nM: IC50 (second compound 0.0316 µM)
> 10000 nM: IC50 (second compound 0.00316 µM) | IC50 (second compound 0.01 µM)
inactive: viability, T/C [1] 102% | viability, T/C [2] 86.5% | viability, T/C [3] 78.2% | viability, T/C [4] 75.5% | viability, T/C [5] 82.7% | viability, T/C [6] 81.2% | viability, T/C [7] 102% | viability, T/C [8] 71.9% | viability, T/C [9] 74.2% | viability, T/C [10] 67% | viability, T/C [11] 66.7% | viability, T/C [12] 50.5% | viability, T/C [13] 85.7% | viability, T/C [14] 59% | viability, T/C [15] 58.9% | viability, T/C [16] 37.1% | viability, T/C [17] 33.6% | viability, T/C [18] 26.5% | viability, T/C [19] 69.5% | viability, T/C [20] 53.3% | viability, T/C [21] 39.1% | viability, T/C [22] 30.9% | viability, T/C [23] 26.6% | viability, T/C [24] 15.6% | viability, T/C [25] 55.3% | viability, T/C [26] 42.7% | viability, T/C [27] 36.3% | viability, T/C [28] 22.8% | viability, T/C [29] 15.1% | viability, T/C [30] 11.8% | viability, T/C [31] 51.5% | viability, T/C [32] 42.9% | viability, T/C [33] 36.8% | viability, T/C [34] 26.5% | viability, T/C [35] 14.9%
active: viability, T/C [36] 7.14%
37.4 nM: IC50 (second compound 1 µM)
138 nM: IC50 (second compound 0.1 µM)
53.5 nM: IC50 (second compound 0.316 µM)

Cn1ncnc1[C@H]1c2n[nH]c(=O)c3cc(F)cc(c23)N[C@@H]1c1ccc(F)cc1 + COc1c(OCCCN2CCOCC2)ccc2c3n(c(=NC(=O)c4cnc(N)nc4)nc12)CCN3
> 100 nM: IC50 (second compound 0.00316 µM) | IC50 (second compound 0.01 µM) | IC50 (second compound 0.0316 µM) | IC50 (second compound 0.1 µM) | IC50 (second compound 0.316 µM) | IC50 (second compound 1 µM)
inactive: viability, T/C (second compound 0.00316 µM, first compound 0.000316 µM) 93.9% | viability, T/C (second compound 0.00316 µM, first compound 0.001 µM) 83.3% | viability, T/C (second compound 0.00316 µM, first compound 0.00316 µM) 96.7% | viability, T/C (second compound 0.00316 µM, first compound 0.01 µM) 72% | viability, T/C [1] 88.8% | viability, T/C [2] 78.4% | viability, T/C (second compound 0.01 µM, first compound 0.000316 µM) 94.2% | viability, T/C (second compound 0.01 µM, first compound 0.001 µM) 81.2% | viability, T/C (second compound 0.01 µM, first compound 0.00316 µM) 79.8% | viability, T/C (second compound 0.01 µM, first compound 0.01 µM) 84.5% | viability, T/C [7] 93.3% | viability, T/C [8] 77.7% | viability, T/C (second compound 0.0316 µM, first compound 0.000316 µM) 90.2% | viability, T/C (second compound 0.0316 µM, first compound 0.001 µM) 81.9% | viability, T/C (second compound 0.0316 µM, first compound 0.00316 µM) 84.1% | viability, T/C (second compound 0.0316 µM, first compound 0.01 µM) 83.1% | viability, T/C [13] 88% | viability, T/C [14] 95.6% | viability, T/C (second compound 0.1 µM, first compound 0.000316 µM) 72.2% | viability, T/C (second compound 0.1 µM, first compound 0.001 µM) 77.4% | viability, T/C (second compound 0.1 µM, first compound 0.00316 µM) 70.6% | viability, T/C (second compound 0.1 µM, first compound 0.01 µM) 73.7% | viability, T/C [19] 84.9% | viability, T/C [20] 76.8% | viability, T/C (second compound 0.316 µM, first compound 0.000316 µM) 71.1% | viability, T/C (second compound 0.316 µM, first compound 0.001 µM) 65.2% | viability, T/C (second compound 0.316 µM, first compound 0.00316 µM) 61.7% | viability, T/C (second compound 0.316 µM, first compound 0.01 µM) 62.6% | viability, T/C [25] 76.3% | viability, T/C [26] 60.9% | viability, T/C (second compound 1 µM, first compound 0.000316 µM) 55.7% | viability, T/C (second compound 1 µM, first compound 0.001 µM) 50.2% | viability, T/C (second compound 1 µM, first compound 0.00316 µM) 55.9% | viability, T/C (second compound 1 µM, first compound 0.01 µM) 56.6% | viability, T/C [31] 63.6% | viability, T/C [32] 60.8%
